Source: PMC8050608 (The Korean Journal of Physiology & Pharmacology : …, 2021)
Like-named read-outs stand apart in the source and are kept apart here.

Columns and labels:
ORAI1 [1] = biological target: T1, ORAI1 (Homo sapiens, UniProt Q96D31); format: cell-based; details: HEK-293T, read-out: % inhibition at 100 μM
ORAI1 [2] = biological target: T1, ORAI1; format: cell-based; details: HEK-293T, read-out: % inhibition at 100 μM; remark: listed apart in the source

T1 sequence (Q13586 23-685): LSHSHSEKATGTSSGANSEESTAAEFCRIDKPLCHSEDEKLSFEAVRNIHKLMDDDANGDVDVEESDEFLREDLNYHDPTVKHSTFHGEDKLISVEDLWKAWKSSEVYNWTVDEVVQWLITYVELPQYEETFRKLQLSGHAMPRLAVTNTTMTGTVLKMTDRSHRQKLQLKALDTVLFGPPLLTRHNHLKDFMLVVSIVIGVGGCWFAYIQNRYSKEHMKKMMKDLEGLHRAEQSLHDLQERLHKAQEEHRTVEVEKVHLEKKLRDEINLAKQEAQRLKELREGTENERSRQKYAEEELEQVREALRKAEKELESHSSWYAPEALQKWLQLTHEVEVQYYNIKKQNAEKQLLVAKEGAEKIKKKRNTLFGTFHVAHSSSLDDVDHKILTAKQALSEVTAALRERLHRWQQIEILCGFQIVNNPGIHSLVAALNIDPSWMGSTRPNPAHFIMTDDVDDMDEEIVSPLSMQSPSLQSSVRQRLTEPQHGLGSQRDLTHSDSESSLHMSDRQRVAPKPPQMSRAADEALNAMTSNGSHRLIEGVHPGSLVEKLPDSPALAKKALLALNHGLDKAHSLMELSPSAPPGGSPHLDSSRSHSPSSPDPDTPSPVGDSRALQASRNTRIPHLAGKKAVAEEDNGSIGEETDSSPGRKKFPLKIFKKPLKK
T1 sequence (Q96D31 whole entry): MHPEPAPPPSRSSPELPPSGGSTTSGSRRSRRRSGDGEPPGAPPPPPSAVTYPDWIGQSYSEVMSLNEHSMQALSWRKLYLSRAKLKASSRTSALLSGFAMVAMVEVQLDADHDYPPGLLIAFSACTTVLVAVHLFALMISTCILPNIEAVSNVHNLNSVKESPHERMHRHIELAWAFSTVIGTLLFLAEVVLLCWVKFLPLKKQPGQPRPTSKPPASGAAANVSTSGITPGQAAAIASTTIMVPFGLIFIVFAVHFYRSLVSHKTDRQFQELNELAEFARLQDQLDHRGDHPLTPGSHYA

| SMILES | inhibition at 100 µM (ORAI1 [1]) [%] | inhibition at 100 µM (ORAI1 [2]) [%] |
| --- | --- | --- |
| COc1ccc([C@H]2OC[C@H]3[C@@H]2CO[C@@H]3c2ccc(OC)c(OC)c2)cc1OC [eudesmin] | 24.7 | – |
| COc1ccc([C@H]2OC[C@H]3[C@@H]2CO[C@@H]3c2cc(OC)c(OC)c(OC)c2)cc1OC [magnolin] | – | 29.7 |
